Measured values reported in patent US20170000749A1, “Methods for Treating Cognitive Disorders Using Inhibitors of Histone Deacetylase” (Forum Pharmaceuticals, Inc., priority 2008, published 2017).
Like-named read-outs stand apart in the source and are kept apart here.

Columns and labels:
[1] = test system: Drosophila Huntington's Disease model flies; assay: In Vivo Drosophila Fly Assay for Treatment of Huntington's Disease (automated climbing behavioral assay); set-up: species or system Drosophila melanogaster; settings: for Speed 1 to 7 (concentration) 30 uM / Speed 1 to 7 (concentration) 100 uM / Speed 1 to 7 (concentration) 300 uM: effect size of early speed (days 1-7) vs DMSO-carrier control; for Speed 8 to 10 (concentration) 30 uM / Speed 8 to 10 (concentration) 100 uM / Speed 8 to 10 (concentration) 300 uM: effect size of late speed (days 8-10) vs DMSO-carrier control
Text: The Drosophila Huntington's Disease assay used to screen compounds of the present disclosure followed that of WO 2007/002497, which is hereby incorporated by reference in its entirety.
Briefly, parental (model and driver) lines are maintained in sufficient quantities to provide virgins and males for assay crosses as well as perpetuating the lines. Disease model flies are maintained with the disease genes “silent”, functionally linked to a UAS enhancer element. The “driver” lines contain a GAL4 element under the control of a tissue-specific promoter. These are crossed together to generate the assay flies which have tissue-specific (i.e. CNS) expression of the disease gene(s).
Weekly assay crosses are set up with sufficient virgins and males to generate enough assay embryos for sorting. Approximately 50,000 males and 75,000 virgins are crossed in population cages. Embryos are collected for an eight hour window two days later. The embryos are then sorted onto 16 mm assay vials containing regular fly media and allowed to develop. Flies containing both the GAL4 driver element and the disease gene(s) are detected by the presence of GFP, a fluorescing protein. Approximately 10 assay flies eclose per vial, the optimal number for the behavioral assay. Once the flies eclose, they are transferred onto assay vials containing liquid Drosophila food. Similarly, control crosses are set up with virgins of the driver and males from a non-disease UAS line. Throughout fly production and the assay days, all flies are maintained at constant temperature and humidity, with preset light cycle, optimized for the particular lines and crosses.
Quality control (QC) for the parental lines is carried out weekly by collecting a sample of random male flies from each line. Single-fly PCR is carried out to ascertain the presence of the GAL4 or UAS element. If greater than 5% of the individuals lack the appropriate element, the assay cross is aborted. A second form of QC is also carried out to ensure that the GAL4 element is able to drive expression of a transgene. A sample of individual “driver” virgins is crossed to UAS-GFP males. Their progeny are visually checked for GFP expression in the appropriate tissues. Lack of GFP in greater than 4% of the crosses results in the assay being aborted.
Test compounds are weighed out and dissolved in DMSO at stock concentrations 100× what is desired in the assay and arrayed into 96-well master plates, including wells for DMSO-only controls and the positive control(s). A single well is reserved for a colored dye used to ensure proper orientation of compounds during drug dispensing and fly transfer. Replicate daughter plates for each day of the assay are stamped out. The plates are bar coded and stored at −20 C until used for the assay.
For a particular assay day, the plates are thawed and a robotic liquid handler is used to dilute the test compound into the liquid fly food and dispense the mixture into the assay vials. For Huntington Disease (HD) models, eight replicates per single treatment (one compound, one concentration) are dispensed. Fresh test compound treated media is made daily during an assay.
On the day the assay flies eclose (emerge from […]; assay Day 0) they are transferred to the test compound treated vials. On assay Day 1, the flies are transferred onto clean test compound treated vials one hour before assay time. They are then placed in the assay machine to acclimate to the appropriate climate conditions.
The assay machine is an environmentally-enclosed and controlled robot that can maintain user-set temperature and humidity. The machine can hold up to sixteen 96-vial racks in four quadrants, for a total of 1536 vials. There are four camera stations, which hold four vials each and a CCD camera for movie capture. […]

[2] = test system: HDAC activity in primary mouse cortical cultures; assay: Whole-Cell Histone Deacetylase (HDAC) Inhibition Assay in Primary Mouse Cortical Cultures; assay type: cell-based
Method in brief: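 Primary neocortical neurons from E17 Balb/C mouse embryos were plated at 50000 cells/well and treated at DIV9 with ten-point DMSO dilutions for 16-18 h at 37° C, in triplicate. BOC-Lys(Ac)-AMC substrate was then added for 1 h. Fluor de Lys developer containing 1 uM TSA produced a fluorophore, which was read.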

[3] = biological target: one or more of HDAC-1, HDAC-2, HDAC-3, HDAC-4, HDAC-5, HDAC-6, HDAC-7, HDAC-8, HDAC-9, HDAC-10 and HDAC-11; assay: Inhibition of Histone Deacetylase Enzymatic Activity (Boc-Lys(Ac)-AMC substrate, Fluor-de-Lys developer); assay type: biochemical; settings: read-out: HDAC Inhibition (IC50 μM) HDAC Enzyme
Protocol: The following protocol is used to assay the compounds of the disclosure.
The mixture is pre-incubated for 5 minutes at room temperature. The reaction is started by bringing the temperature to 37° C. and adding 16 μl substrate. Total reaction volume is 50 μl.
In the Tables 8, 9 and 10, A≦0.05 μM; 0.05 μM<B≦0.1 μM; 0.1 μM<C≦1 μM; and 1 μM<D≦10 μM.

[4] = whole-cell (WC), mouse cortical neurons, Table 10, read-out: HDAC Inhibition (IC50 μM) WC mouse cortical neurons
[5] = whole-cell (WC), mouse cortical neurons, Table 8, read-out: HDAC Inhibition (IC50 μM) WC mouse cortical neurons

SMILES | Speed 1 to 7 (concentration) 30 uM [1] | Speed 1 to 7 (concentration) 100 uM [1] | Speed 1 to 7 (concentration) 300 uM [1] | Speed 8 to 10 (concentration) 30 uM [1] | Speed 8 to 10 (concentration) 100 uM [1] | Speed 8 to 10 (concentration) 300 uM [1] | other results
O=C(NO)c1cnc(N2CC3CC2CN3c2cc(C(F)(F)F)ccn2)nc1 (stereo not shown) | 0.468 | 0.82 | 0.3 | 0.087 | 0.82 | 0.54 | 
Cc1ccc(N2CC3CC2CN3c2ncc(C(=O)NO)cn2)cc1 (stereo not shown) | −0.007 | 0.046 | 0.829 | −0.134 | −0.369 | −0.107 | 
O=C(NO)c1cnc(N2CC3CC2CN3c2cccc(C(F)(F)F)n2)nc1 (stereo not shown) | 0.781 | 0.549 | 0.411 | 0.291 | 0.376 | 0.471 | 
CC(C)OC(=O)N1CC2CC1CN2c1ncc(C(=O)NO)cn1 (stereo not shown) | 0.495 | 0.33 | −0.469 | 0.338 | 0.368 | 0.512 | 
O=C(NO)c1cnc(N2CC3CC2CN3c2cccc(SC(F)(F)F)c2)nc1 (stereo not shown) | 0.63 | 0.38 | 0.03 | 0.28 | 0.02 | −0.29 | 
O=C(NO)c1cnc(N2CC3CC2CN3c2ccc3c(c2)OC(F)(F)O3)nc1 (stereo not shown) | 0.28 | 0.64 | 0.66 | 0.22 | 0.46 | 0.58 | 
O=C(NO)c1cnc(N2CC3CC2CN3c2cccc3nonc23)nc1 (stereo not shown) |  | 0.84 | 0.68 |  | 0.26 | 0.5 | 
O=C(NO)c1cnc(N2CC3CC2CN3c2cccc(C(F)(F)F)c2)nc1 (stereo not shown) | 0.02 | 0.48 | 0.506 | −0.14 | 0.3 | −0.112 | 
Cc1cccc(N2CC3CC2CN3c2ncc(C(=O)NO)cn2)c1 (stereo not shown) | 0.493 | 0.588 | 0.412 | 0.036 | 0.359 | 0.439 | 
O=C(NO)c1cnc(N2CC3CC2CN3c2cccc(OC(F)(F)F)c2)nc1 (stereo not shown) | 0.05 | −0.01 | 0.68 | 0.15 | 0.16 | 0.35 | 
O=C(NO)c1ccc(CN2C(=O)c3cccnc3N(C3CC3)c3ccccc32)cc1 [4-((11-cyclopropyl-5-oxo-5H-benzo[b]pyrido[2,3-e][1,4]diazepin-6(11H)-yl)methyl)-N-hydroxybenzamide] |  |  |  |  |  |  | IC50 [2, 4]: 5 to 15 µM; IC50 ([3]; Table 10): 0.1 to 1 µM
O=C(/C=C/c1ccc2c(c1)NC(=O)CN=C2c1ccccc1)NO [(E)-N-hydroxy-3-((Z)-2-oxo-5-phenyl-2,3-dihydro-1H-benzo[e][1,4]diazepin-8-yl)acrylamide] |  |  |  |  |  |  | IC50 ([2]; read-out: HDAC Inhibition (IC50 μM) WC mouse cortical neurons, Table 10): 1 to 5 µM; IC50 ([3]; Table 10): 0.05 to 0.1 µM
N#Cc1ccc2c(c1)N=C(c1ccc(C(=O)NO)cc1)c1ccccc1O2 [(Z)-4-(8-cyanodibenzo[b,f][1,4]oxazepin-11-yl)-N-hydroxybenzamide] |  |  |  |  |  |  | IC50 [2, 5]: 1 to 5 µM; IC50 ([3]; Table 8): 0.05 to 0.1 µM
O=C(NO)c1ccc(C2=Nc3ccccc3N(CCN3CCOCC3)c3ncccc32)cc1 [(Z)-N-hydroxy-4-(11-(2-morpholinoethyl)-11H-benzo[b]pyrido[2,3-e][1,4]diazepin-5-yl)benzamide] |  |  |  |  |  |  | IC50 [2, 5]: 1 to 5 µM; IC50 ([3]; Table 8): 0.05 to 0.1 µM
O=C(NO)c1ccc(C2=Nc3ccccc3Oc3ccc(F)cc32)cc1 [drawing 821] | 0.118 | −0.004 | 0.444 | −0.108 | 0.139 | 0.47 | 
O=C(Cc1ccc(CN2c3ccccc3C=Cc3ccccc32)cc1)NO [(Z)-2-(4-((5H-dibenzo[b,f]azepin-5-yl)methyl)phenyl)-N-hydroxyacetamide] |  |  |  |  |  |  | IC50 [2, 4]: 5 to 15 µM; IC50 ([3]; Table 10): 0.1 to 1 µM
O=C(NO)c1cnc(N2C[C@H]3C[C@@H]2CN3c2cc(C(F)(F)F)ccn2)nc1 [N-hydroxy-2-((1R,4R)-5-(4-(trifluoromethyl)pyridin-2-yl)-2,5-diazabicyclo[2.2.1]heptan-2-yl)pyrimidine-5-carboxamide] |  |  |  |  |  |  | IC50 ([2]; whole-cell (WC), mouse cortical neurons, Table 9, read-out: HDAC Inhibition (IC50 μM) WC mouse cortical neurons): < 1 µM; IC50 ([3]; Table 9): < 0.05 µM
